The results in this text go back to ChEMBL document CHEMBL5131541, “Structural Feature Analyzation Strategies toward Discovery of Orally Bioavailable PROTACs of Bruton's Tyrosine Kinase for the Treatment of Lymphoma” (J Med Chem, 2022).

For series [1], the target named is T1, Tyrosine-protein kinase BTK (Homo sapiens, UniProt Q06187). Nature of the series: Induction of BTK degradation in human MINO cells incubated for 24 hrs by Western blot. Type of series: cell-based. Particulars: dose 1-1000 nM, DDE = dose-dependent effect.
In series [2] the target is T1, Tyrosine-protein kinase BTK. Nature of the series: Inhibition of BTK (unknown origin).
Series [3] can be described thus: Tmax in Sprague-Dawley rat at 5 to 10 mg/kg, po administered as cassette dose measured upto 24 hrs by LC-MS analysis. Type of series: ADME, organism-based. Particulars: in vivo, dose 5-10 mg/kg.
The nature of series [4]: Half life in Sprague-Dawley rat at 5 to 10 mg/kg, po administered as cassette dose measured upto 24 hrs by LC-MS analysis. Type of series: ADME, organism-based. The conditions noted are these: in vivo, dose 5-10 mg/kg.
Series [5] is described as follows: AUC (0 to t) in Sprague-Dawley rat at 5 to 10 mg/kg, po administered as cassette dose measured upto 24 hrs by LC-MS analysis. The conditions noted are these: in vivo, dose 5-10 mg/kg. Type of series: ADME, organism-based. Further details: time < 24 hrs, route po.
Series [6] in a line: Cmax in Sprague-Dawley rat at 5 to 10 mg/kg, po administered as cassette dose measured upto 24 hrs by LC-MS analysis. Type of series: ADME, organism-based. Also noted: time < 24 hrs, route po. Particulars: in vivo, dose 5-10 mg/kg.
The nature of series [7]: Dose normalized AUC (0 to t) in Sprague-Dawley rat at 5 to 10 mg/kg, po administered as cassette dose measured upto 24 hrs by LC-MS analysis. Type of series: ADME, organism-based. Particulars: in vivo, dose 5-10 mg/kg.
The subject of series [8] is TMD8. Nature of the series: cells. The conditions noted are these: Homo sapiens.
Series [9] in a line: AUC (0 to t) in ICR mouse at 20 mg/kg, po administered as single dose measured upto 48 hrs by LC-MS analysis. Type of series: ADME, organism-based. Also noted: dose 20 mg/kg, time < 48 hrs, route po. Particulars: in vivo.
Series [10] in a line: Tmax in ICR mouse at 20 mg/kg, po administered as single dose measured upto 48 hrs by LC-MS analysis. Type of series: ADME, organism-based. The conditions noted are these: in vivo.
A short description of series [11]: Half life in Sprague-Dawley rat at 10 mg/kg, po administered as cassette dose measured upto 24 hrs by LC-MS analysis. Type of series: ADME, organism-based. Particulars: in vivo.
A short description of series [12]: Dose normalized AUC (0 to t) in Sprague-Dawley rat at 10 mg/kg, po administered as cassette dose measured upto 24 hrs by LC-MS analysis. Type of series: ADME, organism-based. The conditions noted are these: in vivo.
Series [13] in a line: Cmax in ICR mouse at 20 mg/kg, po administered as single dose measured upto 48 hrs by LC-MS analysis. Type of series: ADME, organism-based. Further details: dose 20 mg/kg, time < 48 hrs, route po. Particulars: in vivo.
Series [14] has as its system OCI-Ly10. Nature of the series: cells. The conditions noted are these: Homo sapiens.
The nature of series [15]: AUC (0 to t) in Sprague-Dawley rat at 10 mg/kg, po administered as cassette dose measured upto 24 hrs by LC-MS analysis. Type of series: ADME, organism-based. Further details: dose 10 mg/kg, time < 24 hrs, route po. Particulars: in vivo.
Series [16] deals with T1, Tyrosine-protein kinase BTK. Description: Induction of BTK degradation in human MINO cells incubated for 24 hrs by Western blot analysis. Particulars: dose 1-1000 nM, DDE = dose-dependent effect. Type of series: cell-based.
Series [17] is described as follows: AUC (0 to infinity) in ICR mouse at 20 mg/kg, po administered as single dose measured upto 48 hrs by LC-MS analysis. Also noted: dose 20 mg/kg, time < 48 hrs, route po. Type of series: ADME, organism-based. The conditions noted are these: in vivo.
Series [18] can be described thus: cells. The conditions noted are these: Homo sapiens, MINO.
Series [19] in a line: Tmax in Sprague-Dawley rat at 10 mg/kg, po administered as cassette dose measured upto 24 hrs by LC-MS analysis. Type of series: ADME, organism-based. Particulars: in vivo.
Series [20] has as its system JeKo-1. Description: cells. The conditions noted are these: Homo sapiens.
Series [21] has as its target Tyrosine-protein kinase BTK (Mus musculus) (UniProt P35991). Description: In vivo induction of BTK degradation in ICR mouse monocytes at 20 mg/kg, po after 8 hrs by Western blot analysis relative to control. Particulars: Monocyte. Type of series: functional, organism-based.
Series [22] concerns JeKo-1. Nature of the series: cells. Particulars: Homo sapiens. This is another data set of the same source.
Series [23] is described as follows: Half life in ICR mouse at 20 mg/kg, po administered as single dose measured upto 48 hrs by LC-MS analysis. The conditions noted are these: in vivo. Type of series: ADME, organism-based.
The subject of series [24] is MM1.S. Nature of the series: cells. The conditions noted are these: Homo sapiens.
A short description of series [25]: Cmax in Sprague-Dawley rat at 10 mg/kg, po administered as cassette dose measured upto 24 hrs by LC-MS analysis. Particulars: in vivo. Further details: time < 24 hrs, dose 10 mg/kg, route po. Type of series: ADME, organism-based.
Series [26] is described as follows: Cmax in ICR mouse at 100 mg/kg, po measured upto 48 hrs by LC/MS analysis. Type of series: ADME, organism-based. Further details: dose 100 mg/kg, time < 48 hrs, route po. Particulars: in vivo.
A short description of series [27]: AUC (0 to t) in ICR mouse at 100 mg/kg, po measured upto 48 hrs by LC/MS analysis. Also noted: time < 48 hrs, dose 100 mg/kg, route po. Particulars: in vivo. Type of series: ADME, organism-based.
A short description of series [28]: Half life in ICR mouse at 100 mg/kg, po measured upto 48 hrs by LC/MS analysis. Type of series: ADME, organism-based. The conditions noted are these: in vivo.
A short description of series [29]: AUC (0 to infinity) in ICR mouse at 100 mg/kg, po measured upto 48 hrs by LC/MS analysis. Type of series: ADME, organism-based. Further details: time < 48 hrs, dose 100 mg/kg, route po. Particulars: in vivo.
Series [30] can be described thus: Tmax in ICR mouse at 100 mg/kg, po measured upto 48 hrs by LC/MS analysis. Type of series: ADME, organism-based. Particulars: in vivo.
Series [31] relates to OCI-Ly10. Nature of the series: Antitumor activity against human OCILY10 cells xenografted in SCID mouse assessed as tumor growth inhibition at 10 mg/kg, po qd measured after 17 days relative to control. Type of series: functional. Further details: scale not given: the % may be the effect or the level left. The conditions noted are these: time 17 day.

T1 sequence (Q06187 whole entry): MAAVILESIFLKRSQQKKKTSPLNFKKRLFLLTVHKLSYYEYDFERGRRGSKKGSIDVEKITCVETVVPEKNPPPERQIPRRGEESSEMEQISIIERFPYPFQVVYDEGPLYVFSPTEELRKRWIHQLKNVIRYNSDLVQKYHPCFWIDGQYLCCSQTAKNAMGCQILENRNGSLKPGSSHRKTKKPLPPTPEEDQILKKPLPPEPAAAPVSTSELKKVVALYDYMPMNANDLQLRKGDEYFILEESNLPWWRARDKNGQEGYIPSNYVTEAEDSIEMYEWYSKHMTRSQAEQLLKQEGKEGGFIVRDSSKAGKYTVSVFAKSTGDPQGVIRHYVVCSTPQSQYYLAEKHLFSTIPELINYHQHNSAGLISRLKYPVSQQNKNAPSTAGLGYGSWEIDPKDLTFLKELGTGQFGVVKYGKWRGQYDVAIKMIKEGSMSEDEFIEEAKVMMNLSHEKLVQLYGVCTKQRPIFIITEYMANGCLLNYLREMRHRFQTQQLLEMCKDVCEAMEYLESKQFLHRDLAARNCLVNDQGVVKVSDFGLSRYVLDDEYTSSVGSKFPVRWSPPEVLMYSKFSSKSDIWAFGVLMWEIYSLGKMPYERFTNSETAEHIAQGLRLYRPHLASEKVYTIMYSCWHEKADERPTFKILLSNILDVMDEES
Sequence of Tyrosine-protein kinase BTK (Mus musculus) (P35991 whole entry): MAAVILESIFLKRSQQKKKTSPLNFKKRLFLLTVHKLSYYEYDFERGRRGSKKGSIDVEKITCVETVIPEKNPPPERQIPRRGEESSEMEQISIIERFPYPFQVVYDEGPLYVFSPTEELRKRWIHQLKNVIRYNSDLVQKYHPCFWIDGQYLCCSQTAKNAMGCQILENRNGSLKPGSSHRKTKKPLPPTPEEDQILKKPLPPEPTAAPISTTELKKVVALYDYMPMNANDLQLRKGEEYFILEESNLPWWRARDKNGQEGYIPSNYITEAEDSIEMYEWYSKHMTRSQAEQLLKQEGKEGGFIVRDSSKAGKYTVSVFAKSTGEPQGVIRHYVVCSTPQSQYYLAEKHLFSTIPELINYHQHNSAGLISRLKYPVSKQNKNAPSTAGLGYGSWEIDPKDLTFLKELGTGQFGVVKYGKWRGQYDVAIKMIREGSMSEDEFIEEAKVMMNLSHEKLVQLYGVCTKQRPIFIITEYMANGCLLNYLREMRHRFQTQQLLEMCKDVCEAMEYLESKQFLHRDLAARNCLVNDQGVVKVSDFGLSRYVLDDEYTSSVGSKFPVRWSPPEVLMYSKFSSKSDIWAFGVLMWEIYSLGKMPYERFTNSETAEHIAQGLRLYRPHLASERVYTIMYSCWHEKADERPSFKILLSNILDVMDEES

Regarding `Nc1ncnc2c1c(-c1ccc(Oc3ccccc3)cc1)nn2[C@@H]1CCCN(C(=O)CCCCC(=O)NCC#CCN2CCN(CC#Cc3ccc4c(c3)CN(C3CCC(=O)NC3=O)C4=O)CC2)C1` (stereo partly specified), in series [1], the Activity result was “Dde”. The compound further returned an IC50 in [2] of 9 nM.

For the compound `Nc1ncnc2c1c(-c1ccc(Oc3ccccc3)cc1)nn2[C@@H]1CCCN(C(=O)[C@H]2CCCC[C@H]2C(=O)N2CCN(CC#Cc3ccc4c(c3)CN(C3CCC(=O)NC3=O)C4=O)CC2)C1` (stereo partly specified), the Activity entry in series [1] was “Dde”. The Tmax in [3] was determined as 30 min. The compound further gave a half-life in series [4] of 120 min. Moreover, the AUC(0-t) at 24 h in series [5] worked out at 58 ng·h/mL. This compound came in with an IC50 in [2] of 9 nM. The compound further returned a Cmax in series [6] of 29 ng/mL. In series [7], this compound yielded an AUCt/dose of 6 ng·h/mL/mg.

As for `Nc1ncnc2c1c(-c1ccc(Oc3ccccc3)cc1)nn2[C@@H]1CCCN(C(=O)CC(=O)NCC#CCN2CCN(CC#Cc3ccc4c(c3)CN(C3CCC(=O)NC3=O)C4=O)CC2)C1` (stereo partly specified), the IC50 came out at 106 nM in [8]; 40.2 nM in [14]; 24.4 nM in [2]; 800 nM in [18]; 6570 nM in series [20]; 20000 nM in series [22]. In series [24], this compound displayed an IC50 of over 20000 nM. Further, the AUC(0-t) at 48 h in series [9] came to 39 ng·h/mL. Also, the results for the Tmax in series [10] and in series [19] were 18 min and 42 min, respectively. The values for the half-life in series [11] and in series [23] were 474 min and 318 min, respectively. The same compound returned an AUCt/dose in series [12] of 215 ng·h/mL/mg. The Cmax in [13] amounted to 20 ng/mL; in series [25], 461 ng/mL. In addition, the AUC(0-t) at 24 h in series [15] was 21.5 ng·h/mL. The Activity entry in series [16] was “Dde”; in series [21], 16.5%. The compound further gave an AUC(0-inf) in series [17] of 55 ng·h/mL.

Consider `Nc1ncnc2c1c(-c1ccc(Oc3ccccc3)cc1)nn2[C@@H]1CCCN(C(=O)C2(C(=O)N3CCN(CC#Cc4ccc5c(c4)CN(C4CCC(=O)NC4=O)C5=O)CC3)CC2)C1` (stereo partly specified), for which, in series [1], the Activity result is “Dde”. Besides, the Tmax in series [3] came out at 54 min. The half-life in series [4] is 138 min. In series [5], this compound returned an AUC(0-t) at 24 h of 2530 ng·h/mL. This compound returned an IC50 in series [2] of 9 nM. The compound further came in with a Cmax in series [6] of 782 ng/mL. For the same compound, the AUCt/dose in [7] worked out at 253 ng·h/mL/mg.

As to `Nc1ncnc2c1c(-c1ccc(Oc3ccccc3)cc1)nn2[C@@H]1CCCN(C(=O)[C@H]2CCCC[C@H]2C(=O)NCC#CCN2CCN(CC#Cc3ccc4c(c3)CN(C3CCC(=O)NC3=O)C4=O)CC2)C1` (stereo partly specified), the Cmax in [26] came out at 52 ng/mL; in series [6], 125 ng/mL. The same compound came in with an AUC(0-t) at 48 h in [27] of 62 ng·h/mL. Further, the Activity result in series [1] is “Dde”. The Tmax was 36 min in [3] and 42 min in series [30]. Besides, the values for the half-life in series [4] and in [28] were 84 min and 60 min, respectively. Further, the AUC(0-t) at 24 h in series [5] stood at 247 ng·h/mL. Also, the IC50 in series [2] is 9 nM; in series [20] it was 792 nM; in series [22] it was over 20000 nM. Also, in series [7], the AUCt/dose was 25 ng·h/mL/mg. For the same compound, the AUC(0-inf) in series [29] was 81 ng·h/mL.

As for `Nc1ncnc2c1c(-c1ccc(Oc3ccccc3)cc1)nn2[C@@H]1CCCN(C(=O)CCC(=O)NCC#CCN2CCN(CC#Cc3ccc4c(c3)CN(C3CCC(=O)NC3=O)C4=O)CC2)C1` (stereo partly specified), the Activity result in [1] was “Dde”. The IC50 in series [2] was found to be 9 nM.

With `Nc1ncnc2c1c(-c1ccc(Oc3ccccc3)cc1)nn2[C@@H]1CCCN(C(=O)[C@H]2CC[C@H](C(=O)N3CCN(CC#Cc4ccc5c(c4)CN(C4CCC(=O)NC4=O)C5=O)CC3)CC2)C1` (stereo partly specified), the Activity entry in series [1] is “Dde”. Further, the Tmax in series [3] is 36 min. In series [4], this compound gave a half-life of 48 min. In [5], this compound registered an AUC(0-t) at 24 h of 24 ng·h/mL. Moreover, the IC50 in series [2] was 9 nM; in series [20], 1940 nM; in series [22], over 20000 nM. Moreover, in [6], the Cmax was determined as 16 ng/mL. The compound further yielded an AUCt/dose in series [7] of 2 ng·h/mL/mg.

Regarding `C=CC(=O)N1CCC[C@@H](n2nc(-c3ccc(Oc4ccccc4)cc3)c3c(N)ncnc32)C1` [IBRUTINIB], the Activity in series [31] is on record as 50.7%.
